For one data set, the target named is T1, PI3K (p110α/p85α) (Homo sapiens, UniProt P42336).
T1 construct: purchased Carna Biosciences 07CBS-0402A
As to the kind of experiment: PI3K activity assay (ADP Hunter Plus). Particulars: read-out: IC50, PI3K inhibition. It counts as biochemical. On the procedure:
The kinase activity was measured by using the commercial ADP Hunter™ Plus assay available from DiscoveRx (#33-016), which is a homogeneous assay to measure the accumulation of ADP, a universal product of kinase activity. […] Reaction was carried out for 1 hour at 25° C. Reagent A and B were sequentially added to the wells and plates were incubated for 30 min at 37° C. […] Values were normalized against the control activity included for each enzyme (i.e., 100% PI3 kinase activity, without compound). These values were plot against the inhibitor concentration and were fit to a sigmoid dose-response curve by using the Graphad software.

A further data set concerns phospho-Ser-473-Akt. In words: AKT phosphorylation inhibition, Western blot cell assay. It counts as cell-based. Particulars: Homo sapiens; read-out: IC50, cell assay (p-AKT Western Blot). On the procedure:
The cell lines were obtained from the American Type Culture Collection (ATCC). U2OS (human osteosarcoma) was cultured in Dulbecco's modified Eagle's medium (DMEM). PC3 (human prostate carcinoma), MCF7 (human breast cardinoma), HCT116 (human colon carcinoma), 768-0 (human neuroblastoma), U251 (human glyoblastoma) were grown in RPMI. All media were supplemented with 10% fetal bovine serum (FBS) (Sigma) and antibiotics-antimycotics. Cell were maintained in a humidified incubator at 37° C. with 5% CO2 and passaged when confluent using trypsin/EDTA.
Subconfluent cells were incubated under different conditions and washed twice with TBS prior to lysis. Lysis buffer was added containing 50 mM Tris HCl, 150 mM NaCl, 1% NP-40, 2 mM Na3VO4, 100 mM NaF, 20 mM Na4P2O7 and protease inhibitor cocktail (Roche Molecular Biochemicals). The proteins were resolved on 10% SDS-PAGE and transferred to nitrocellulose membrane (Schleicher & Schuell, Dassel, Germany). The membranes were incubated overnight at 4° C. with antibodies specific for Akt, phospho-Ser-473-Akt (Cell Signaling Technology) and α-tubulin (Sigma), they were washed and then incubated with IRDye800 conjugated anti-mouse and Alexa Fluor 680 goat anti-rabbit IgG secondary antibodies. The bands were visualized using an Odyssey infrared imaging system (Li-Cor Biosciences).
In general terms: In western blotting, separated proteins are transferred to a membrane and probed.

A further data set deals with PI3K isoform p110δ (Homo sapiens, UniProt O00329). As to the kind of experiment: Inhibition of PI3K isoform p110δ. It is filed as biochemical.
Chain of PI3K isoform p110δ (O00329 whole entry, canonical isoform): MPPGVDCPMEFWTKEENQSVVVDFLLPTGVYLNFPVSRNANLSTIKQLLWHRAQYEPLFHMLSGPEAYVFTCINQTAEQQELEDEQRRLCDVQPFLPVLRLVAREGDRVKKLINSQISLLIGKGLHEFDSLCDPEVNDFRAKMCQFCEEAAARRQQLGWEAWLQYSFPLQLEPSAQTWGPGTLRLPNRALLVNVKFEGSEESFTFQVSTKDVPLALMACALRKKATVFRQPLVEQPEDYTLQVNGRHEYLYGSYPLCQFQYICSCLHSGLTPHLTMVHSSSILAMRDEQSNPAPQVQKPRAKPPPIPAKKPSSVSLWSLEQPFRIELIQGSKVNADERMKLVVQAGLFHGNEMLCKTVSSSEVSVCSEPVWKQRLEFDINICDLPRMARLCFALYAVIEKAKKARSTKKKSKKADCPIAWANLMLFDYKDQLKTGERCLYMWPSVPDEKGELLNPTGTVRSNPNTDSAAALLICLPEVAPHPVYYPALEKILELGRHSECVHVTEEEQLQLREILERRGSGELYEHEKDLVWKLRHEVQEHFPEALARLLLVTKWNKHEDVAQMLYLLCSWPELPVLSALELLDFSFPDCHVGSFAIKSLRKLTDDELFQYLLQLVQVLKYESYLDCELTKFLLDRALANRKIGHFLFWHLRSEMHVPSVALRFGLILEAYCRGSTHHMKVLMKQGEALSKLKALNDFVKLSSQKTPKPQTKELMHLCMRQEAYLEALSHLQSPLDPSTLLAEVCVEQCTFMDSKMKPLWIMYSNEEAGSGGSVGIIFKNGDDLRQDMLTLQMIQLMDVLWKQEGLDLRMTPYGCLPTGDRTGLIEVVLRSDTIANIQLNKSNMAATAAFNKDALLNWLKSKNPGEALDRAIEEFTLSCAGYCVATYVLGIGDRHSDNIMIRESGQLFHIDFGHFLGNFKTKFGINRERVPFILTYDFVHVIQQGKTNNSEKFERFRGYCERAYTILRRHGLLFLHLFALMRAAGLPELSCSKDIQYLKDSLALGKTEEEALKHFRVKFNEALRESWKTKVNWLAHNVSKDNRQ
Chain of PI3K isoform p110δ (P27986 whole entry partner, canonical isoform): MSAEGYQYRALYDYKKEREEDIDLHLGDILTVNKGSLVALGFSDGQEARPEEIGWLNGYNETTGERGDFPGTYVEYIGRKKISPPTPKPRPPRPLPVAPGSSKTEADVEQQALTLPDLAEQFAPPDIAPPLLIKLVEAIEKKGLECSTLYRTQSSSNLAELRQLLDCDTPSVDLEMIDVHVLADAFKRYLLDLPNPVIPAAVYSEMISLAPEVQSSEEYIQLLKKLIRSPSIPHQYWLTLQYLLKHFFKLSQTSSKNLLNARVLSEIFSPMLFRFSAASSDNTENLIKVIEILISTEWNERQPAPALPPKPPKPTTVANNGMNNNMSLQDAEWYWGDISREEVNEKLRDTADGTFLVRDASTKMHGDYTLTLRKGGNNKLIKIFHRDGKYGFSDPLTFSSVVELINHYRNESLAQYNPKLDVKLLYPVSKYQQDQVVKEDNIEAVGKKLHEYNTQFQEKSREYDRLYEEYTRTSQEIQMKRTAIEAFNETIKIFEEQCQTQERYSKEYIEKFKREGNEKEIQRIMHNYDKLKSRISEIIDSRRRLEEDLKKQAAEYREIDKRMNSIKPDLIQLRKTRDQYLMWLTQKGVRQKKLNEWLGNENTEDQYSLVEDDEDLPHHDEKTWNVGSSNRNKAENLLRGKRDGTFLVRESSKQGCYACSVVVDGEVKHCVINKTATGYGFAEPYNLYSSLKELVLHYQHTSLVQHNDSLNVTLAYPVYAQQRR
In a further data set the target is PI3K isoform p1103 (Homo sapiens, UniProt P42338). As to the kind of experiment: Inhibition of PI3K isoform p110β. It is filed as biochemical.
Chain of PI3K isoform p1103 (P42338 whole entry, canonical isoform): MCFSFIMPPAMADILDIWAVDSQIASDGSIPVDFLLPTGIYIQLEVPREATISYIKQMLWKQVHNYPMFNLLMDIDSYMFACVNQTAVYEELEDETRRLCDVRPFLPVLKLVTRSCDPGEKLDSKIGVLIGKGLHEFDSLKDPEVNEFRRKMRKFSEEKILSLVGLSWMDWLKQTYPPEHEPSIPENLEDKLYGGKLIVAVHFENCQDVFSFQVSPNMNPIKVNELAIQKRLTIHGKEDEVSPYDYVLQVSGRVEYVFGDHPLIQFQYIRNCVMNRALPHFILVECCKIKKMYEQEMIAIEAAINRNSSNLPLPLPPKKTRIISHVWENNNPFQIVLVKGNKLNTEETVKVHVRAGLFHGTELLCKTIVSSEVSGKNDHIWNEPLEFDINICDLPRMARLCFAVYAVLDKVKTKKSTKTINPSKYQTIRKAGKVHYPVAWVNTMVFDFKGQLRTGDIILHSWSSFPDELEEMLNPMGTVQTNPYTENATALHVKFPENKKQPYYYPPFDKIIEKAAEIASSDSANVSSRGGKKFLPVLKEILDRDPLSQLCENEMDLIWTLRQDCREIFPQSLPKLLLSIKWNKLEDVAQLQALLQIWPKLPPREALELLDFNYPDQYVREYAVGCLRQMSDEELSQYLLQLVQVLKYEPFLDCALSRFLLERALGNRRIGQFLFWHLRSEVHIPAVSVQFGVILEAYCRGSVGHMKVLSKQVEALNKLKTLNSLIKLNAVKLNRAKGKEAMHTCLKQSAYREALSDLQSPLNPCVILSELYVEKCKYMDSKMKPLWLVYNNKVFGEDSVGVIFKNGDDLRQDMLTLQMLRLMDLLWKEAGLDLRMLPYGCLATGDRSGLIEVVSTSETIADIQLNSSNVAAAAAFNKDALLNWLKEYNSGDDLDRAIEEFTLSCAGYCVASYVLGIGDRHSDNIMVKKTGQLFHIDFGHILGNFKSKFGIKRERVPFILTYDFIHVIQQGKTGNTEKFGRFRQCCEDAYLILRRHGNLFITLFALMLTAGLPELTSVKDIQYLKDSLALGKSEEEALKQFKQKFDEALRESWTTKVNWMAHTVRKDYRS
Chain of PI3K isoform p1103 (P27986 whole entry partner, canonical isoform): as the sequence (P27986 whole entry partner, canonical isoform) above
Data set [1] relates to 282 additional kinases including mTOR and DNAPK. In words: Inhibition of additional kinases (panel). It is filed as biochemical.
For data set [2], the system named is brown adipose tissue (BAT) of C57BL6 mice. As to the kind of experiment: In vivo inhibition of PI3K: mRNA levels in BAT. Particulars: 15 mg/kg by gavage, 6 h, C57BL6 males. Here is the method: For in vitro assays Compound A was added at a concentration of 1 μM. For in vivo assays, Compound A″ was administered orally by gavage at a dose of 15 mg/kg. Mice were sacrificed 6 h after and tissues were extracted and analyzed. Treated mice were C57BL6 males, 3 months old.
Total RNA from tissues or fibroblasts was extracted using TRIZOL (Invitrogen). Reverse transcription was performed using random primers and Ready-To-Go™ You-Prime First-Strand Beads (GE Healthcare). Quantitative real time-PCR was performed using DNA Master Sybr Green I mix (Applied Biosystems) in an ABI PRISM 7700 thermocycler (Applied Biosystem). Primer sequences are described in Supp.

The subject of data set [3] is obese mice under high-fat diet. As to the kind of experiment: Body weight and food intake of obese mice under high-fat diet. It is filed as in vivo. Particulars: 10 mg/kg, ad libitum high-fat food. Here is the method:
Obese mice under long-term high-fat (HFD) were dosed with Compound A or with the indicated PI3KI by gavage once per day, during 2 weeks, resting the intervening week-end, and always with ad libitum access to HFD. During the two weeks of treatment, it was scored the amount of food intake (upper left panel) and the change in body weight relative to the initiation of the treatment (upper right panel). The final relative change in body weight is also represented (lower panel). The weight of non-obese littermates (always fed with standard diet, SD) is marked for reference.
Mice were fed either with a standard chow diet (Harlan Teklad 2018, 18% calories from fat) or, when indicated, with a high fat diet (Research Diets D12451, 45% of total calories from fat). To measure food intake, mice were housed in metabolic cages during 5 days, and food and water intake, as well as, the output of faeces and urine were measured during the last 4 days. Body composition (fat and lean content) was determined by Dual energy X-ray Absorptiometry (DXA) (Lunar PIXImus Densitometer, GE Medical Systems). Image acquisition lasted 5 minutes with mice under anesthesia by inhalation of 2% isofluorane in 100% oxygen. The analysis of lean mass and fat mass was performed using a Region Of Interest (ROI) comprising the entire body. […]

In data set [4] the test system is SCID mice bearing human NSCLC A549 lung tumors. In words: Body weight of SCID mice bearing A549 lung tumor xenografts. It counts as in vivo. Particulars: 22 mg/kg orally, 9 doses, SCID mice with A549 xenografts. Here is the method:
FIG. 41. Body weight evolution of SCID mice bearing human NSCLC A549 lung tumors when treated with Compound A orally, 9 doses of 22 mg/Kg during day 15th and 30th, versus compounds treated with vehicle.
In “normal conditions” no body weight loss is observed.

pIC50, pKi: −log10 of the molar value. Entries after “also recorded” stand apart in the source; their conditions may differ.

T1 sequence (P42336 whole entry): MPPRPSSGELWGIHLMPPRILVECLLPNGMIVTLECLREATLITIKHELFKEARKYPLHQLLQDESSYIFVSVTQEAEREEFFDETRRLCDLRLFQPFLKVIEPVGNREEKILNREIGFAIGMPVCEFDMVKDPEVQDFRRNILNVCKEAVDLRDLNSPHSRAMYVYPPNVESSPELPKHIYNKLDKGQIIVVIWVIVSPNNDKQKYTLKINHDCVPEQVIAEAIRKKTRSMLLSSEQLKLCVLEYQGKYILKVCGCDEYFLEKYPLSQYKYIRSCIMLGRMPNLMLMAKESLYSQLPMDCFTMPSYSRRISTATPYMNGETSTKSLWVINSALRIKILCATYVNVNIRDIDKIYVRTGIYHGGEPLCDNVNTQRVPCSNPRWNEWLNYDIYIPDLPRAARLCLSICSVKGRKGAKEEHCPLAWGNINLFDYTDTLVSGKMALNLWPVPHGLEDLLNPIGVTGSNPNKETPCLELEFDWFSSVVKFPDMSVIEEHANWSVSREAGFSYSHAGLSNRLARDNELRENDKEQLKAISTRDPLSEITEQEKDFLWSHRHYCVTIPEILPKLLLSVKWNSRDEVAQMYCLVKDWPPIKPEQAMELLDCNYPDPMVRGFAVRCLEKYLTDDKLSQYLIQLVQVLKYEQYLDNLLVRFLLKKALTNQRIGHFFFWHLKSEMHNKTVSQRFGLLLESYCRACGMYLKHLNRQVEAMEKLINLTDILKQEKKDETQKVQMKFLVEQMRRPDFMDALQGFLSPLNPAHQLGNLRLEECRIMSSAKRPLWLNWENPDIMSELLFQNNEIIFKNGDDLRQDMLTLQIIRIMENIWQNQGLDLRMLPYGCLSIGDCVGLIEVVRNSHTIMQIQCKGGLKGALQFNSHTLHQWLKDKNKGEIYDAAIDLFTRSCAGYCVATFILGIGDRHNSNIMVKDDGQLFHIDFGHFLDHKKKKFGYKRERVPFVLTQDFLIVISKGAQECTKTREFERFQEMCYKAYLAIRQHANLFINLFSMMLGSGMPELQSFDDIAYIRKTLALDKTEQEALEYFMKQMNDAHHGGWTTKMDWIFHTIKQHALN
T1 sequence (P27986 whole entry partner): as the sequence (P27986 whole entry partner, canonical isoform) above

With `CS(=O)(=O)N1CCN(Cc2cn3c(Cl)c(-c4cnc(N)nc4)nc(N4CCOCC4)c3n2)CC1` [Compound A], the pIC50 on PI3K (p110α/p85α) is 8.62; in the data set on phospho-Ser-473-Akt, 8.30; in data set [1] it was more than 6.00. Besides, the pKi is 8.01 on PI3K isoform p110δ and less than 7.00 on PI3K isoform p1103. The “Lcad mRNA in the BAT” value in data set [2] is “significant upregulation”. Also, in data set [2], the “Pgc1a mRNA in the BAT” value was “significant upregulation”. Further, the “Ucp1 mRNA in the BAT” value in data set [2] is on record as “significant upregulation”. In addition, the “decrease of body weight” value in data set [3] (gavage once a day for 2 weeks) is recorded as “approx. 10%”. Further, the food intake entry in data set [3] (during treatment) is listed as “did not change significantly”. The “body weight of non-obese mice” value in data set [4] is “no changes in body weight; also recorded: “lack” of weight loss activity”.

A word on the pIC50: it is the IC50 on a negative log10 scale, so that one unit is a factor of ten. In general, pKi refers to the negative decadic logarithm of the Ki, by convention in mol/L. A high value points to a low Ki.

Values taken from patent publication US9993554B2 (CENTRO NACIONAL DE INVESTIGACIONES ONCOLOGICAS (CNIO), priority 2010, dated 2018).
